Legend:
[1] = system: OVA-sensitized and challenged Balb/c mice; assay: BAL total and differential cell counts, OVA model; format: in vivo, mouse; details: 24 h after last challenge, POL7085 15 mg/kg or DEX 1 mg/kg i.n. once daily 1 h before challenge, p < 0.001
Method: (§1) Bronchoalveolar lavage (BAL) was performed 24 h after the last OVA challenge as previously described. Mice were anaesthetized i.p. (ketamine 150 mg/kg, xylazine 10 mg/kg). A plastic cannula was inserted in the exposed trachea, and airways were washed with 0.5 mL of 0.9 % NaCl (saline) injected with a 1 mL syringe. This procedure was performed ten times. The initial concentrated supernatant of the two first lavages (2 × 0.5 mL administered, approx. 0.5 mL recovered) was collected for cytokine measurements. The remainder of the BALF was centrifuged (600 g for 5 min, 4 °C), and cell pellets pooled. After lysis of erythrocytes with distilled water followed by osmotic re-equilibration and centrifugation, the cell pellet was suspended in 500 μL of saline and total cell counted on a haemocytometer chamber (Neubauer, PRECISS®). Cells were cytocentrifuged at 700 rpm for 10 min (Cytospin 4, Thermo Fischer Scientific), and stained with Diff-Quick® (Merck) for differential cell counts performed on at least 400 cells.

[2] = system: OVA-sensitized and challenged Balb/c mice; assay: BAL cytokines by ELISA, OVA model; format: in vivo, mouse; details: 24 h after last challenge
Method: as §1, with “Cells were cytocentrifuged at 700 rpm for 10 min (Cytospin 4, Thermo Fischer Scientific), and stained with Diff-Quick® (Merck) for differential cell counts performed on at least 400 cells.” left out
(§2) IL-5, IFN-γ (BD Pharmingen), CCL28 (R&D system) ELISA kits and Th17 Milliplex® (Millipore) were used according to the manufacturer’s instructions. For BALF recovered 24 h after the last OVA challenge, IL-5 and IFN-γ were quantified by ELISA. For lung homogenate, concentrations of IL-4, IL-5, IL-13, IL-17a and IL-17f were quantified by Milliplex® in the supernatants obtained after lung tissue was homogenised with an UltraTurax® and centrifuged at 10,000 g for 10 min at 4 °C.

[3] = system: OVA-sensitized and challenged Balb/c mice; assay: Lung homogenate cytokines by Milliplex, OVA model; format: in vivo, mouse; details: POL7085 7.5 and 15 mg/kg or DEX 1 mg/kg i.n.
Method: as §2

[4] = system: OVA-sensitized and challenged Balb/c mice; assay: Plasma OVA-specific IgE by ELISA, OVA model; format: in vivo, mouse; details: D22, ELISA
Method: Plasma IgE levels were determined by ELISA. Microtiter plates were coated overnight at 4 °C with the capture antibody, anti-mouse IgE at 2 μg/well in carbonate buffer, pH 9.5 (BD Pharmingen, clone R35-118).

[5] = system: OVA-sensitized and challenged Balb/c mice; assay: Lung tissue CCL28 by ELISA, OVA model; format: in vivo, mouse; details: POL7085 p < 0.05
Method: as §2

[6] = system: OVA-sensitized and challenged Balb/c mice; assay: Lung CCR3 mRNA by RT-qPCR, OVA model; format: in vivo, mouse; details: 2^ΔΔCt, not significant
Method: All procedures were performed according to the manufacturer’s instructions. Lung tissue was homogenised in a Fastprep®, and total RNA extracted with Tri-Reagent® (1 mL/left lung; Euromedex) and purified with mini RNeasy® Kit (Qiagen). RNA pellets were suspended in nuclease-free water (DEPC). RNA concentration and quality were determined in each preparation with a Nanodrop® spectrophotometer.
Reverse transcription was performed on 10 μg/mL of total RNA by the High Capacity cDNA Archive kit® (Life Technologies™) for 10 min at 25 °C and 2 h at 37 °C, and cDNAs were stored at −80 °C until use. Quantitative PCR was performed by real-time fluorescent PCR with TaqMan® Gene Expression Assay in 96 well plate format (Life Technologies™, ABI7000) using TaqMan® Gene Expression Assay primers (Life Technologies™ for HPRT1 (Mm01545399_m1), CCR10 (Mm01292449_m1), CCL28 (Mm00445039_m1) and CCR3 (Mm00515543_s1). To analyse the low expression of CCR10, CCL28 and CCR3, a preamplification was performed with TaqMan® PreAmp Master Mix (Life Technologies™) and TaqMan® Gene Expression Assay (10 min at 95 °C followed by 14 cycles: 15 s at 95 °C and 4 min at 60 °C). Preamplified cDNAs were stored at −80 °C until use and diluted 1/20 with 1X TE buffer for use. […]

[7] = system: OVA-sensitized and challenged Balb/c mice; assay: Colorimetric assay of lung mucus, OVA model; format: in vivo, mouse
Method: Mucus was measured in lung homogenate by a mucus colorimetric assay: 100 μL samples were mixed with 20 μL acid mucus reagent (0.2 % periodic acid) incubated for 1 h at 37 °C, then 20 μL mucus dye reagent (pararosaniline 1 %, 10 N hydrochloric acid 1 %) was added and samples were incubated for a further 30 min at 37 °C, before optical density measurement at 555 nm.

[8] = system: OVA-sensitized and challenged Balb/c mice; assay: Airway responsiveness to methacholine, whole body barometric plethysmography; format: in vivo, mouse; details: DEX 1 mg/kg i.n., p < 0.001
Method: Airway responsiveness to aerosolized methacholine (MCh; Sigma-Aldrich, A2251) was measured in conscious mice on day 22 (24 h after the last OVA challenge) by whole body barometric plethysmography (Emka Technologies). Mice were acclimatized in the plethysmograph chamber for 30 min until a stable baseline was obtained, and then exposed to aerosolized saline for 30 s as a control. Mice were then challenged every 20 min with aerosolized MCh at increasing concentrations (0.05, 0.1, 0.2 and 0.3 M) for 30 s, and the enhanced pause (PenH) was recorded for 5 min and used as an index of airway obstruction.

[9] = system: OVA-sensitized and challenged Balb/c mice; assay: Lung histology (haematoxylin-eosin), OVA model; format: in vivo, mouse; details: POL7085 15 mg/kg or DEX 1 mg/kg i.n.
Method: Lung tissues were fixed in 4 % paraformaldehyde and paraffin-embedded. 6 μm sections were cut, mounted on Superfrost glass slides (Fischer Scientific) and stained with haematoxylin-eosin for light microscopy morphological analysis or periodic acid-Schiff (PAS) staining to determine the extent of mucus production. The area of epithelial cells containing the mucus were measured and expressed relative to the total bronchus perimeter.

[10] = system: OVA-sensitized and challenged Balb/c mice; assay: Immunohistochemistry of CCR10 in the lung, OVA model; format: in vivo, mouse; details: CCR10 immunolabelling
Method: Sections (3 μm) of lung tissue were cut, mounted, placed in Sequenza® immunostaining with Coverplate™ (Thermo Scientific Shandon), and antigen retrieval was performed with proteinase K in Tris-EDTA buffer (pH 8; Fluka) for 35 min at 37 °C. The endogenous enzyme was blocked with Dual Endogenous Enzyme Block (Dako Cytomation) and slides were incubated overnight at 4 °C with the primary antibody 1/1000 (goat anti-mouse CCR10 antibody; Capralogics), followed by 30 min at RT with the secondary rabbit anti-goat antibody (Vector) and 30 min at RT with extravidin peroxidase (Sigma-Aldrich).

[11] = system: OVA-sensitized and challenged Balb/c mice; assay: Colorimetric assay of lung collagen, OVA model; details: lung homogenate, POL7085 p < 0.05, DEX 1 mg/kg p < 0.001

C[C@@H]1C[C@H]2[C@@H]3CCC4=CC(=O)C=C[C@]4(C)[C@@]3(F)[C@@H](O)C[C@]2(C)[C@@]1(O)C(=O)CO [DEX, dexamethasone]
inhibition of BAL eosinophil recruitment [1]: 87% | inhibition of BAL lymphocyte recruitment [1]: 86% | inhibition of BAL neutrophil recruitment [1]: 90% | effect on IL-5 level in BAL [2]: significantly decreased | effect on levels of IL-4, IL-5 and IL-13 in lung homogenate [3]: significantly decreased | effect on plasma OVA-specific IgE levels [4]: a slight decrease, although non significant | effect on lung CCL28 concentration [5]: had no effect on CCL28 levels | reduction of OVA-induced lung CCR3 mRNA expression [6]: 45% | effect on lung mucus (colorimetric assay, lung homogenate) [7]: trend towards reduction of mucus levels (ns) | effect on airway responses to MCh [8]: significantly decreased airway responses to MCh | effect on peribronchial and perivascular inflammatory cell infiltrates in lung [9]: substantial reduction of these cellular infiltrates | infiltrating inflammatory cells expressing CCR10 [10]: clearly reduced | reduction of lung collagen levels [11]: 64%

— article PMC4490744, “Protective effect of a Protein Epitope Mimetic CCR10 antagonist, POL7085, in a model of allergic eosinophilic airway inflammation” (Respiratory Research, 2015)
